Results reported in patent publication US20200399222A1, “PICOLINAMIDES AS FUNGICIDES” (Dow AgroSciences LLC, priority 2018, published 2020).
Where two headings read alike, the source gives them in different places.

How the values were obtained:
Format in all cases: in vivo
[1] = tested on: Phakopsora pachyrhizi; assay: Asian soybean rust (PHAKPA) disease control on soybean seedlings; conditions: Phakopsora pachyrhizi, High volume application at 25 ppm
Outline: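 Compounds in acetone diluted with nine volumes of water containing 0.011% Tween 20, sprayed to run-off on two-week-old Williams 82 soybean seedlings; inoculation 3 days before or 1 day after treatment. Plants held 24 h in dark dew room at 22° C, 100% RH, then at 23° C; disease severity scored on sprayed leaves.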

[2] = tested on: Zymoseptoria tritici; assay: Leaf blotch of wheat (SEPTTR) disease control on wheat seedlings; conditions: for pest or weed control at 121.5 g/ha: Low volume application; for pest or weed control at 100 ppm: High volume application
[3] = tested on: Puccinia triticina; assay: Wheat brown rust (PUCCRT) disease control on wheat seedlings; conditions: for pest or weed control at 121.5 g/ha: Low volume application; for pest or weed control at 100 ppm: High volume application
Outline: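 Yuma wheat seedlings (first leaf emerged) sprayed to run-off with compound in acetone plus nine volumes water containing 110 ppm Triton X-100, or track-sprayed as EC formulations with 0.1% Trycol 5941. Rust spores inoculated before or after treatment; overnight dark dew, 22 °C, 100% RH, then greenhouse at 24 °C.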

[4] = 24 h, 1 day protectant, read-out: PHAKPA 1DP (1 Day Protectant) disease control
[5] = 72 h, 3 day curative, read-out: PHAKPA 3DC (3 Day Curative) disease control
[6] = 24 h, 1 Day Protectant, read-out: SEPTTR disease control rating, 1DP
[7] = 72 h, 3 Day Curative, read-out: SEPTTR disease control rating, 3DC
[8] = 24 h, 1 Day Protectant, read-out: PUCCRT disease control rating, 1DP
[9] = 72 h, 3 Day Curative, read-out: PUCCRT disease control rating, 3DC

| SMILES | pest or weed control at 25 ppm [1, 4] [%] | pest or weed control at 25 ppm [1, 5] [%] | pest or weed control at 121.5 g/ha [2, 6] [%] | pest or weed control at 121.5 g/ha [2, 7] [%] | pest or weed control at 121.5 g/ha [3, 8] [%] | pest or weed control at 121.5 g/ha [3, 9] [%] | pest or weed control at 100 ppm [2, 6] [%] | pest or weed control at 100 ppm [2, 7] [%] | pest or weed control at 100 ppm [3, 8] [%] | pest or weed control at 100 ppm [3, 9] [%] |
| --- | --- | --- | --- | --- | --- | --- | --- | --- | --- | --- |
| COc1ccnc(C(=S)N[C@@H](C)C(=O)O[C@@H](C)[C@@H](C)c2ccc(F)cc2C(F)(F)F)c1OC(C)=O [Example 271] | > 80 | > 80 | < 80 | < 80 | < 80 | < 80 | – | – | – | – |
| COc1ccnc(C(=O)N[C@@H](C)C(=O)O[C@H](C)[C@H](C)c2c(C)cccc2C)c1OC(C)=O [Example 253] | > 80 | > 80 | < 80 | < 80 | > 80 | < 80 | – | – | – | – |
| COc1ccnc(C(=S)N[C@@H](C)C(=O)O[C@@H](C)[C@@H](C)c2ccccc2C(F)(F)F)c1OC(C)=O [Example 270] | > 80 | < 80 | < 80 | < 80 | < 80 | < 80 | – | – | – | – |
| COc1ccnc(C(=O)N[C@@H](C)C(=O)O[C@@H](C)[C@H](C)c2ccccc2C)c1OCOC(C)=O [Example 231] | < 80 | < 0 | < 80 | < 80 | > 80 | < 80 | – | – | – | – |
| COc1ccnc(C(=O)N[C@@H](C)C(=O)O[C@@H](C)[C@@H](C)c2ccccc2C)c1OC(=O)C(C)C [Example 266] | > 80 | > 80 | < 80 | < 80 | < 80 | < 80 | – | – | – | – |
| COc1ccccc1[C@H](C)[C@H](C)OC(=O)[C@H](C)NC(=O)c1nccc(OC)c1OC(C)=O [Example 257] | < 80 | < 0 | < 80 | < 80 | < 80 | < 80 | – | – | – | – |
| COc1cc[n+]([O-])c(C(=O)N[C@@H](C)C(=O)O[C@@H](C)[C@@H](C)c2ccccc2)c1O [Example 276] | < 0 | < 80 | < 80 | < 80 | < 80 | < 80 | < 80 | < 80 | > 80 | < 80 |
| COc1ccnc(C(=O)N[C@@H](C)C(=O)O[C@H](C)[C@H](C)c2ccc(C)cc2C)c1OC(C)=O [Example 178] | > 80 | < 80 | < 80 | < 80 | < 80 | < 80 | – | – | – | – |
| COc1cc(F)ccc1[C@@H](C)[C@@H](C)OC(=O)[C@H](C)NC(=O)c1c(O)c(OC)cc[n+]1[O-] [Example 277] | < 80 | < 80 | < 80 | < 80 | < 0 | < 80 | < 80 | < 80 | < 80 | < 0 |
| COc1ccnc(C(=O)N[C@@H](C)C(=O)O[C@H](C)[C@H](C)c2ccc(F)cc2)c1OCOC(C)=O [Example 232] | < 80 | < 0 | < 0 | < 80 | > 80 | < 80 | – | – | – | – |
| COc1cc[n+]([O-])c(C(=O)N[C@@H](C)C(=O)O[C@@H](C)[C@@H](C)c2ccc(F)cc2C(F)(F)F)c1O [Example 274] | < 80 | < 80 | < 80 | < 80 | < 80 | < 80 | – | – | – | – |
| COc1ccnc(C(=O)N[C@@H](C)C(=O)O[C@H](C)[C@H](C)c2ccc(C)cc2C)c1OC(=O)C(C)C [Example 180] | > 80 | < 80 | < 80 | < 80 | < 80 | < 80 | – | – | – | – |
| COc1ccnc(C(=O)N[C@@H](C)C(=O)O[C@@H](C)[C@@H](C)c2ccccc2C)c1O [Example 175] | > 80 | > 80 | – | – | – | – | < 80 | < 80 | > 80 | > 80 |
| COc1ccnc(C(=O)N[C@@H](C)C(=O)O[C@@H](C)[C@@H](C)c2ccc(F)cc2C(F)(F)F)c1OC(C)=O [Example 246] | > 80 | > 80 | > 80 | > 80 | > 80 | > 80 | – | – | – | – |
| COc1ccnc(C(=O)N[C@@H](C)C(=O)O[C@H](C)[C@H](C)c2ccc(F)cc2C(F)(F)F)c1OC(C)=O [Example 251] | > 80 | < 80 | < 80 | < 80 | < 80 | < 80 | – | – | – | – |
| COc1cc[n+]([O-])c(C(=O)N[C@@H](C)C(=O)O[C@@H](C)[C@@H](C)c2ccccc2C(F)(F)F)c1O [Example 273] | < 80 | < 80 | < 80 | < 80 | < 80 | < 80 | – | – | – | – |
| COc1ccnc(C(=O)N[C@@H](C)C(=O)O[C@@H](C)[C@@H](C)c2c(C)cc(F)cc2C)c1OC(C)=O [Example 249] | > 80 | > 80 | > 80 | > 80 | > 80 | > 80 | – | – | – | – |
| COc1ccnc(C(=O)N[C@@H](C)C(=O)O[C@H](C)[C@H](C)c2ccccc2C)c1OC(=O)C(C)C [Example 265] | > 80 | > 80 | < 80 | < 80 | < 80 | < 80 | – | – | – | – |
| COc1ccnc(C(=O)N[C@@H](C)C(=O)O[C@H](C)[C@H](C)c2ccccc2C(F)(F)F)c1OC(=O)C(C)C [Example 239] | < 80 | < 80 | < 80 | < 80 | < 0 | < 0 | – | – | – | – |
| COc1ccnc(C(=O)N[C@@H](C)C(=O)O[C@@H](C)[C@@H](C)C2CCCC2)c1OC(C)=O [Example 247] | > 80 | < 80 | < 80 | < 80 | < 80 | < 80 | – | – | – | – |
| COc1ccnc(C(=O)N[C@@H](C)C(=O)O[C@H](C)[C@H](C)C2CCCC2)c1OC(=O)C(C)C [Example 241] | < 0 | < 0 | < 80 | < 0 | < 0 | < 0 | – | – | – | – |
| COc1ccnc(C(=O)N[C@@H](C)C(=O)O[C@@H](C)[C@@H](C)C2CCCC2)c1OC(=O)C(C)C [Example 236] | > 80 | < 0 | < 80 | < 0 | < 80 | < 80 | – | – | – | – |
| COc1cc[n+]([O-])c(C(=O)N[C@@H](C)C(=O)O[C@@H](C)[C@@H](C)C2CCCC2)c1O [Example 275] | < 80 | < 80 | < 0 | < 0 | < 80 | < 0 | – | – | – | – |
| COc1ccnc(C(=O)N[C@@H](C)C(=O)O[C@@H](C)[C@@H](C)c2ccccc2C(F)(F)F)c1O [Example 158] | – | < 80 | – | – | – | – | > 80 | < 80 | > 80 | > 80 |
